# Measured values as given in US5591741A, “Fungicidal spiroheterocyclic derivatives” (American Cyanamid Company, priority 1993, dated 1997).
# Experiments:
# Venturis inaequalis = assay: In vivo fungicidal activity, Apple Scab (AS); conditions: Table VIa; host plants sprayed; solution of 400 ppm and dilutions
# [1] = test system: Erysiphe graminis f. sp. tritici; assay: In vivo fungicidal activity, Wheat Powdery Mildew (WPM); conditions: Table VIa; host plants sprayed; solution of 400 ppm and dilutions
# Plasmopara viticola [2] = assay: In vivo fungicidal activity, Grape Downy Mildew (GDM); conditions: Table VIa; host plants sprayed; solution of 400 ppm and dilutions; also: ranges in brackets are in %
# Pyricularia oryzae [3] = format: in vivo; conditions: Table VIa; host plants sprayed; solution of 400 ppm and dilutions
# Cercospora beticola = assay: In vivo fungicidal activity, Sugar Beet Cercospora (SBC); conditions: Table VIa; host plants sprayed; solution of 400 ppm and dilutions; also: ranges in brackets are in %
# Alternaria solani [4] = assay: In vivo fungicidal activity, Tomato Early Blight (TEB); conditions: Table VIa; host plants sprayed; solution of 400 ppm and dilutions; also: ranges in brackets are in %
# Septoria nodorum = assay: In vivo fungicidal activity, Wheat Blotch (WSN); conditions: Table VIa; host plants sprayed; solution of 400 ppm and dilutions
# Experimental: Test compounds are dissolved in acetone and diluted with deionized water containing about 0.05% TWEEN 20®, a polyoxyethylene sorbitan monolaurate surfactant manufactured by Atlas Chemical Industries, to give a concentration of 400 ppm. Subsequent dilutions are made with an 0.05% aqueous solution of TWEEN 20®.
# Host plants are sprayed with test solution, dried and inoculated with fungi. When disease symptom development is optimal, the plants are rated for disease control according to the rating scale shown below. Each test contains inoculated treated plants, inoculated untreated plants and a reference standard. When more than one test is run, the data are averaged.
# Botrytis cinerea [5] = assay: In vivo fungicidal activity, Pepper Botrytis (PB); conditions: Table VIa; host plants sprayed; solution of 400 ppm and dilutions; also: ranges in brackets are in %
# [6] = test system: Erysiphe graminis f.sp. hordei; assay: Direct protectant activity against barley powdery mildew (EGP); format: in vivo; conditions: direct protectant foliar spray, 8 days
# Method in brief: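 Rating reflects percentage of leaf area with sporulation compared with untreated or diluent-sprayed controls. Protectant spray was applied to single-leaf barley (cv Golden Promise) 24 h before conidia inoculation. Plants were kept at 18 °C and 40% RH throughout, with 8 days of disease development.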
# Plasmopara viticola [7] = assay: Antisporulant activity against vine downy mildew (PVA); format: in vivo; conditions: vine leaves, antisporulant foliar spray, 600 ppm, 750 l/ha
# Method in brief: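 Cabernet Sauvignon vines (~8 cm) inoculated on lower leaf surfaces with 5×10^4 zoosporangia/ml, held 24 h at 21° C high humidity then 24 h glasshouse. Infected leaves sprayed underside with 600 ppm compound in 1:1 water/acetone, 0.04% Tween 20, 750 l/ha; 96 h glasshouse, 24 h humidity. Sporulating leaf area rated versus control.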
# Phytophthora infestans = format: in vivo; conditions: tomato, direct protectant foliar spray
# Botrytis cinerea [8] = assay: Direct protectant activity against broad bean grey mould (BCB); format: in vivo; conditions: direct protectant foliar spray, 600 ppm, 4 days
# Method in brief: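 Protectant foliar test: lesion coverage assessed 4 days after inoculation and rated relative to untreated or diluent-sprayed plants. Compound applied at 600 ppm to cv The Sutton leaves 24 h before 10^6 conidia/ml suspension; incubation at 22 °C in high humidity.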
# Venturia inaequalis = assay: Activity against apple scab in-vitro (VII); format: cell-based; conditions: 10 ppm, 10 days, 20° C., mycelial growth
# Method in brief: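 V. inaequalis propagules (5×10^4/ml, malt agar-grown) were exposed in half-strength PDB to 10 ppm final test compound delivered in acetone. Growth was scored after incubation for 10 days at 20° C, as a rating relative to untreated or diluent-sprayed controls.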
# [9] = test system: Erysiphe graminis f.sp. hordei; assay: Activity against barley powdery mildew, direct therapeutic (EGT); format: in vivo; conditions: direct therapeutic foliar spray, 600 ppm, up to 7 days
# Method in brief: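 A curative spray at 600 ppm was applied to single-leaf Golden Promise barley inoculated with powdery mildew conidia the previous day. After up to 7 days at 18 °C and 40% humidity, disease control was rated from percent leaf area sporulating relative to untreated or diluent-sprayed controls.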
# Leptosphaeria nodorum = assay: Activity against wheat leafspot (LN); format: in vivo; conditions: direct therapeutic foliar spray, 600 ppm, 6-8 days
# Method in brief: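 Therapeutic foliar spray: compound at 600 ppm applied to single-leaf wheat (cv Norman) 24 h after inoculation with 1.5×10^6 conidia/ml. Disease control scored after 6-8 days at 22° C and 70% humidity as lesions per leaf versus untreated or diluent-sprayed controls.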
# [10] = test system: Pseudocercosporella herpotrichoides; assay: Activity against wheat eyespot in-vitro (PHI); format: cell-based; conditions: 10 ppm, 10 days, 20° C., mycelial growth
# Method in brief: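 Mycelial growth was scored after 10 days at 20 °C against untreated or diluent controls. The broth was half-strength potato dextrose, holding 10 ppm test compound (from acetone) and 5×10^4 fragments/ml of the eyespot fungus.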
# Pyricularia oryzae [11] = format: in vivo; conditions: rice seedlings, direct therapeutic foliar spray, 600 ppm, 4-5 days
# Rhizoctonia solani = assay: Activity against Rhizoctonia in-vitro (RSI); format: cell-based; conditions: 10 ppm, 10 days, 20° C., mycelial growth
# Method in brief: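 Compound at a final 10 ppm (acetone vehicle) in half-strength PDB, inoculated with 5×10^4 fragments/ml of shaken-culture R. solani mycelium. After incubation at 20° C for 10 days, growth scored as a rating versus untreated or diluent-treated controls.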
# Alternaria solani [12] = assay: Activity against tomato early blight (AS); format: in vivo; conditions: Table VI; tomato seedlings, contact prophylactic foliar spray, 4 days
# Method in brief: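 Plants were challenged with A. solani conidia (10^4 spores/ml) 24 h after a protective foliar spray of compound in 50:50 acetone/water plus 0.04% Tween 20. Held humid at 21° C for 4 days, then percent leaf area with lesions was scored as a rating relative to controls.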
Compound,disease control rating AS (Apple Scab) (Venturis inaequalis),disease control rating WPM [1],disease control rating GDM (Plasmopara viticola [2]),disease control rating RB (Pyricularia oryzae [3]),disease control rating SBC (Cercospora beticola),disease control rating TEB (Alternaria solani [4]),disease control rating WSN (Septoria nodorum),disease control rating PB (Botrytis cinerea [5]),disease control rating EGP [6],disease control rating PVA (Plasmopara viticola [7]),disease control rating PIP (Phytophthora infestans),disease control rating BCB (Botrytis cinerea [8]),disease control rating VII (Venturia inaequalis),disease control rating EGT [9],disease control rating LN (Leptosphaeria nodorum),disease control rating PHI [10],disease control rating PO (Pyricularia oryzae [11]),disease control rating RSI (Rhizoctonia solani),disease control rating AS (Alternaria solani [12])
CN(CC1COC2(CCC(C(C)(C)C)CC2)C1)C1CCCCC1 (centres unmarked) [Compound 187],4 (45-59),9 (100),5 (60-74),0 (0),5 (60-74),6 (75-89),7 (90-95),7 (90-95),–,–,–,–,–,–,–,–,–,–,–
CCCCCC(C)N(C)CCC1COC2(CCC(C(C)(C)C)CC2)C1 (centres unmarked) [Compound 201],6 (75-89),8 (96-99),7 (90-95),0 (0),6 (75-89),0 (0),5 (60-74),3 (30-44),–,–,–,–,–,–,–,–,–,–,–
CCCC(CCC)NCCC1COC2(CCC(C(C)(C)C)CC2)C1 (centres unmarked) [Compound 193],6 (75-89),8 (96-99),8 (96-99),0 (0),6 (75-89),2 (15-29),3 (30-44),7 (90-95),–,–,–,–,–,–,–,–,–,–,–
CN(CCC1COC2(CCC(C(C)(C)C)CC2)C1)C1CCCCC1 (centres unmarked) [Compound 199],6 (75-89),8 (96-99),5 (60-74),0 (0),3 (30-44),4 (45-59),7 (90-95),7 (90-95),–,–,–,–,–,–,–,–,–,–,–
CCN(CCC1COC2(CCC(C(C)(C)C)CC2)C1)C1CCCCC1 (centres unmarked) [Compound 200],7 (90-95),8 (96-99),5 (60-74),0 (0),8 (96-99),0 (0),8 (96-99),8 (96-99),–,–,–,–,–,–,–,–,–,–,–
CC(C)(C)C1CCC2(CC1)CC(CCN1CCCCC1)CO2 (centres unmarked) [Compound 203],0 (0),8 (96-99),0 (0),0 (0),8 (96-99),6 (75-89),6 (75-89),8 (96-99),–,–,–,–,–,–,–,–,–,–,–
CC(C)(C)C1CCC2(CC1)CC(CCNC1CCCCCC1)CO2 (centres unmarked) [Compound 195],6 (75-89),7 (90-95),5 (60-74),7 (90-95),7 (90-95),0 (0),7 (90-95),5 (60-74),–,–,–,–,–,–,–,–,–,–,–
CCCCN(CCCC)CCC1COC2(CCC(C(C)(C)C)CC2)C1 (centres unmarked) [Compound 196],5 (60-74),9 (100),5 (60-74),6 (75-89),8 (96-99),0 (0),7 (90-95),5 (60-74),–,–,–,–,–,–,–,–,–,–,–
CCN(CC1COC2(CCC(C(C)(C)C)CC2)C1)C1CCCCC1 (centres unmarked) [Compound 188],5 (60-74),8 (96-99),0 (0),0 (0),4 (45-59),0 (0),6 (75-89),5 (60-74),–,–,–,–,–,–,–,–,–,–,–
CCCCCCNC1COC2(CCC(C(C)(C)C)CC2)C1 (centres unmarked) [Compound 38],–,–,–,–,–,–,–,–,2 (greater than 80% disease control),0 (less than 50% disease control),0 (less than 50% disease control),0 (less than 50% disease control),0 (less than 50% disease control),2 (greater than 80% disease control),0 (less than 50% disease control),2 (greater than 80% disease control),0 (less than 50% disease control),1 (about 50-80% disease control),2 (greater than 80% disease control)
CCC(CC)NC1COC2(CCC(C(C)(C)C)CC2)C1 (centres unmarked) [Compound 83],–,–,–,–,–,–,–,–,2 (greater than 80% disease control),0 (less than 50% disease control),0 (less than 50% disease control),1 (about 50-80% disease control),0 (less than 50% disease control),2 (greater than 80% disease control),0 (less than 50% disease control),0 (less than 50% disease control),0 (less than 50% disease control),0 (less than 50% disease control),0 (less than 50% disease control)
CC(C)(C)C1CCC2(CC1)CC(NC1CC3CCC1C3)CO2 (centres unmarked) [Compound 85],–,–,–,–,–,–,–,–,2 (greater than 80% disease control),0 (less than 50% disease control),2 (greater than 80% disease control),2 (greater than 80% disease control),1 (about 50-80% disease control),2 (greater than 80% disease control),0 (less than 50% disease control),0 (less than 50% disease control),0 (less than 50% disease control),0 (less than 50% disease control),0 (less than 50% disease control)
CCCCCN(C1CCCCC1)C1COC2(CCC(C(C)(C)C)CC2)C1 (centres unmarked) [Compound 77],–,–,–,–,–,–,–,–,2 (greater than 80% disease control),0 (less than 50% disease control),0 (less than 50% disease control),0 (less than 50% disease control),0 (less than 50% disease control),2 (greater than 80% disease control),0 (less than 50% disease control),0 (less than 50% disease control),0 (less than 50% disease control),0 (less than 50% disease control),0 (less than 50% disease control)
